Here are results for 35 compounds from PubChem BioAssay (NCI).

SMILES strings stand for the structures.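 Values below derive from 48-hour exposures of cells grown in 96-well plates, with endpoints linearly interpolated between the two concentrations bracketing the appropriate inhibition level. GI50 = concentration required for 50% inhibition of growth. Definition used: TGI = concentration required for complete inhibition of growth.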

For orientation: GI50 means the concentration giving 50% growth inhibition. By TGI is commonly meant the concentration at which net growth stops. A low value points to more potent growth arrest.

The test relates to MDA-MB-468 breast. Kind of test: DTP human tumour cell line panel, 48 h.
For `C#C[C@]1(O)CC[C@H]2[C@@H]3CC=C4c5sc(Nc6ccc(C)cn6)nc5CC[C@]4(C)[C@H]3CC[C@@]21C`, the GI50 is 1.07 µM and the TGI is 3.13 µM.
The corresponding values for `Clc1ccc(COC(Cn2ccnc2)c2ccc(Cl)cc2Cl)c(Cl)c1` (stereo not given) are 1.84 µM and 5.13 µM.
The corresponding values for `NC(Cc1c[nH]c2cc(F)ccc12)C(=O)O` (stereo not given) are 1010 µM and more than 2500 µM.
The like results for `CCCCCCCCCCCCC(NC(C)=O)(C(=O)OCC)C(=O)OCC` were, in that order, 4.67 µM and 18.6 µM.
For `N#Cc1ccc(NC(=O)Nc2nc3ccc(OC(F)(F)F)cc3s2)cc1`, the GI50 was 0.46 µM and the TGI is 4.84 µM.
The like results for `C#CCOc1ccc(-c2csc(NC(=O)C=C)n2)cc1NS(=O)(=O)c1cccc2c(N(C)C)cccc12` were, in that order, 0.823 µM and 1.71 µM.
The corresponding values for `CN1CCN(c2ccc(-c3cccc(CN4CCOCC4)c3)cc2NC(=O)c2c[nH]c(=O)cc2C(F)(F)F)CC1` are 20.2 µM and 92.5 µM.
As to `COc1c2occc2cc2ccc(=O)oc12`, the GI50 was more than 100 µM and the concentration for total growth inhibition (TGI) was more than 100 µM.
For the compound `COC1C(O)CC(OC2CC(OC3CC(O[C@@H]4C(=O)c5c(cc6cc(OC7CC(OC8CC(O)C(O)C(C)O8)C(O)C(C)O7)c(C)c(O)c6c5O)CC4[C@H](OC)[C@@H](O)C(C)=O)OC(C)C3O)OC(C)C2O)OC1C` (stereo not given in full), the GI50 is 0.0256 µM and the concentration for total growth inhibition (TGI) was 2.65 µM.
The corresponding values for `COCC(=O)NC/C=C/c1ccc2ncnc(Nc3ccc(Oc4ccc(C)nc4)c(C)c3)c2c1` are 1.96 µM and 10.3 µM.
The like results for `CCCC(=O)Nc1c(I)cc(I)c(CC(CC)C(=O)O)c1I` (stereo not given) were, in that order, more than 100 µM and more than 100 µM.
Take `COc1ccc(C(=O)c2cc(C)c(OC)c(C)c2)c(OC)c1N(C(=O)CCl)C(=O)CCl`: the GI50 is 0.0296 µM and the TGI amounted to 1.37 µM.
The corresponding values for `O=C1CCC(N2C(=O)c3cccc(NCCOCCOCCNC(=O)c4cc5c(o4)C(=O)c4ccccc4C5=O)c3C2=O)C(=O)N1` (stereo not given) are 1.46 µM and 3.88 µM.
The corresponding values for `CN1CCN(Cc2ccc(NC(=O)c3cccc(C#Cc4c(N)ncc5ccc(F)cc45)c3)cc2C(F)(F)F)CC1` are 0.888 µM and 1.83 µM.
The like results for `Cc1nc2ccccc2c(/C=C/c2ccccc2)c1C(=O)/C=C/c1ccccc1` were, in that order, 1.79 µM and 3.5 µM.
On to `CCN(CC)CCOc1ccc(Cc2ccccc2)cc1`, for which the GI50 is 16.2 µM and the TGI is 41.2 µM.
On to `CC(C)=CCc1c(O)c(C(=O)CC(C)C)c(O)c2c(-c3ccccc3)cc(=O)oc12`, for which the GI50 is 7.74 µM and the TGI amounted to 36.2 µM.
The corresponding values for `C=C(C)[C@@H]1CC[C@]2(CN)CC[C@]3(C)[C@H](CC[C@@H]4[C@@]5(C)CCC(N)[C@@](C)(CO)[C@@H]5CC[C@]43C)[C@@H]12` (stereo not given in full) are 1.77 µM and 3.42 µM.
The like results for `C=C1C(=O)O[C@H]2[C@H]1CC/C(Cn1cc(-c3ccsc3)nn1)=C\CC[C@@]1(C)O[C@@H]21` were, in that order, 1.28 µM and 3.56 µM.
The like results for `Cc1cc(C)c(O)c(CNCCCNCc2cc(C)cc(C)c2O)c1` were, in that order, 1.69 µM and 3.24 µM.
For the compound `O=C(Nc1ccc(-n2ccc3c(NC(=O)c4ccccc4)nccc32)cc1)c1ccc(N2CCOCC2)c(C(F)(F)F)c1`, the GI50 is 1.74 µM and the TGI was 19.2 µM.
The corresponding values for `O=C(Nc1ccc(N2CCNCC2)cn1)c1[nH]ncc1Nc1ncnc2sccc12` are 1.69 µM and 3.42 µM.
The like results for `CCCCCCCCCC[N+](C)(C)C` were, in that order, 0.43 µM and 2.79 µM.
As to `CCCCCC(=C/c1ccccc1)/C=N/N=C(N)N`, the GI50 was 1.56 µM and the TGI amounted to 3 µM.
The like results for `Cc1ccccc1C[P+](c1ccccc1)(c1ccccc1)c1ccccc1` were, in that order, 0.265 µM and 1.16 µM.
The corresponding values for `C[C@@H]1OC(=O)NN=C1c1ccc(-c2ccc(F)cc2)c(C(F)(F)F)c1` are 1.74 µM and 6.61 µM.
Consider `COc1ccc(-c2cc(-c3ccc(Cl)cc3)nc(SCCCCCCC(=O)NO)n2)cc1`, for which the GI50 was 1.64 µM and the concentration for total growth inhibition (TGI) worked out at 7.19 µM.
The corresponding values for `COC(=O)CCCNC(=O)C(=O)c1c(O)c(O)c(C(C)C)c2cc(C)c(-c3c(C)cc4c(C(C)C)c(O)c(O)c(C(=O)C(=O)NCCCC(=O)OC)c4c3O)c(O)c12` are 0.364 µM and 2.97 µM.
In the case of `CC[C@]12C=CCN3CC[C@@]4(c5cc(NC(=O)COc6cc(O)c7c(=O)cc(-c8ccccc8)oc7c6)c(OC)cc5N(C)[C@H]4[C@@](O)(C(=O)OC)[C@@H]1OC(C)=O)[C@@H]32`, the GI50 was 1.52 µM and the TGI came to 3 µM.
The like results for `Cc1ccc2c(n1)C(=O)C(Cl)=C(Nc1ccc(C#N)cc1)C2=O` were, in that order, 1.78 µM and 3.81 µM.
The corresponding values for `CCCc1n(Cc2ccc3ccccc3n2)cc[n+]1Cc1ccc2ccccc2c1` are 0.273 µM and 1.49 µM.
The like results for `O=S(=O)(NCCNc1cc(-c2cn(-c3ccccc3)nc2-c2cccc(O)c2)ccn1)c1ccc(Br)cc1` were, in that order, 2.7 µM and 7.79 µM.
In the case of `C[C@@]1(O)CCC[C@H]1n1c(=O)c(C(F)F)cc2cnc(NC3CCN(S(C)(=O)=O)CC3)nc21`, the GI50 is 1.61 µM and the TGI is 4.76 µM.
Consider `COC(=O)[C@H](Cc1cn(C)cn1)NC(=O)[C@@H](NC(=O)Nc1cc(C(F)(F)F)cc(C(F)(F)F)c1)C(C)(C)C`, for which the GI50 was more than 10 µM and the TGI was more than 10 µM.
Consider `CC(=Nc1ccccc1)C1=C(O)C(Cc2ccc(F)cc2)NC1=O` (stereo not given), for which the concentration for 50% growth inhibition (GI50) was 0.382 µM and the TGI was 5.22 µM.
